Source: patent publication US20060275329A1 (priority 2002, published 2006)

How the values were obtained:
recombinant TcOYE = format: biochemical, Trypanosoma cruzi; settings: pH 7
TcOYE [1] = assay: Electron spin resonance spectrum of the reaction product of TcOYE (radical generation); format: biochemical, Trypanosoma cruzi; settings: JEOL X-band spectrometer
Procedure: Generation of radicals as a result of one-electron reduction is determined as follows. A hundred microliter of 5 mM tris-HCl buffer (pH 7.0) containing TcOYE and a substrate candidate is displaced with argon gas for 5 minutes to make an anaerobic environment. Then, 10 mM NADPH or NADH is added to the reaction mixture and allowed to react at 25° C. or 37° C. for 3 minutes under anaerobic condition. Part of the reaction mixture is analyzed with an electron spin resonance spectrometer (JEOL X-band spectrometer) to determine the generation of radicals. The measurement conditions and analytical method are described in the paper below. It is believed that the radicals produced react with oxygen to generate superoxide anion radicals (Moreno S. N. J. et al., J. Biol. Chem. 259: 6298-6305, 1984), which kill Trypanosoma cruzi.
The semiquinone radicals reacted with oxygen and produced superoxide anion radicals, which kill the protozoa (see FIG. 8).

TcOYE [2] = assay: Inhibition of the PGH2-F2α reductase activity of TcOYE; format: biochemical, Trypanosoma cruzi; settings: FIG. 9
Procedure: An example of the reaction is as follows. For reaction under aerobic condition, 1 μl of 500 μM [1-14C]PGH2 solution (2.04 Gbq/mmol; acetone, DMSO or dimethylether diethylene glycol solution) is added to 100 μl of 100 mM phosphate buffer (pH 7.0) containing a NADPH production system (100 μM NADP, 100 μM glucose-6-phosphate, 1 unit of glucose-6-phosphate dehydrogenase), TcOYE and an inhibitor, and is allowed to react at 37° C. for two minutes. For reaction under anaerobic condition, after bubbling the reaction mixture with argon gas for five minutes, 100 μM NADPH or NADH and 1 μl PGH2 solution are added, and the mixture is allowed to react in argon gas at 37° C. for two minutes.
250 μl of a stop solution (diethyl ether:methanol:2M citric acid (30:4:1 mixed solution)) at −20° C. and an excess amount of anhydrous sodium sulfate are added to stop the reaction, and the remaining substrate ([1-14C]PGH2) and the enzymatic reaction product ([1-14C]PGF2α) are extracted in ether at the same time. Part (about 50 μl) of the ether layer is applied onto a silica gel thin layer (Merck & Co.) in a low-temperature room, and thin-layer chromatography (eluent:diethyl ether:methanol:acetic acid (90:2:1 mixed solution)) is performed in a refrigerated room at −20° C. After development, autoradiography of the thin layer plate is performed using the image analyzer FL2000 (Fuji Photo Film), and the substrate to product ratio is calculated to determine enzymatic activity.
The enzymatic reaction described above is conducted in the presence or absence of an inhibitor and a decrease in the reaction rate due to the inhibitor is examined to determine whether or not the reduction is inhibited. Because it is very likely that Trypanosoma cruzi uses prostaglandin to sustain parasitism in host cells, an inhibitor of TcOYE may be used to inhibit Trypanosoma cruzi parasitism in host cells.
Naphtoquinone compounds and nitro heterocyclic compounds that are reduced by TcOYE inhibit the PGH2-F2α reducing activity of TcOYE in a dose-dependent manner.

[3] = tested on: crude extract of Trypanosoma cruzi (PG synthesizing system); assay: Prostaglandin production from arachidonic acid by crude extract of Trypanosoma cruzi; format: biochemical
Procedure: The vegetative form (epimastigote) of Trypanosoma cruzi YNIH strain in the insect body (obtained from the National Institute of Infectious Diseases (1-23-1, Toyama, Shinjuku-ku, Tokyo)) was incubated by the conventional method (Nozaki T. et al., J. Biol. Chem. 276: 6516-6523, 2001) using synthetic culture medium. The cultured protozoa was destroyed by hyposmotic treatment and allowed to react with arachidonic acid, and the PGs produced were extracted with an organic solvent and separated/purified by HPLC.

[4] = tested on: [H][C@]12C[C@]([H])(OO1)[C@H](C/C=C\CCCC(=O)O)[C@H]2/C=C/[C@@H](O)CCCCC; assay: purified protein, by the assay type; settings: other: cofactor NADPH (500 μM), argon-bubbled 0.1 M phosphate buffer pH 7.0, decrease in absorption at 340 nm
[5] = tested on: CC1(C)CCC2=C(O1)c1ccccc1C(=O)C2=O; assay: purified protein, by the assay type; settings: other: cofactor NADH (500 μM), argon-bubbled 0.1 M phosphate buffer pH 7.0, decrease in absorption at 340 nm
C[n+]1c2ccccc2nc2ccccc21 = assay: purified protein, by the assay type; settings: other: cofactor NADPH (500 μM), argon-bubbled 0.1 M phosphate buffer pH 7.0, decrease in absorption at 340 nm
CC1=CC(=O)c2ccccc2C1=O = assay: purified protein, by the assay type; settings: other: cofactor NADPH (500 μM), argon-bubbled 0.1 M phosphate buffer pH 7.0, decrease in absorption at 340 nm
[6] = tested on: CC1CS(=O)(=O)CCN1/N=C/c1ccc([N+](=O)[O-])o1; assay: purified protein, by the assay type; settings: other: cofactor NADPH (500 μM), argon-bubbled 0.1 M phosphate buffer pH 7.0, decrease in absorption at 340 nm
[7] = tested on: O=[N+]([O-])c1cc[n+]([O-])c2ccccc12; assay: purified protein, by the assay type; settings: other: cofactor NADPH (500 μM), argon-bubbled 0.1 M phosphate buffer pH 7.0, decrease in absorption at 340 nm

Molecule	Reduction of the compound by TcOYE (substrate specificity) (recombinant TcOYE)	Type of reduction and radical production (ESR) (TcOYE [1])	other results
Clc1ccc(COC(Cn2ccnc2)c2ccc(Cl)cc2Cl)cc1 (stereo not shown) [econazole]	reduces		
CC/C=C\C[C@@H]1C(=O)C=C[C@@H]1CCCCCCCC(=O)O [12-oxo-phytodienoic acid, 4-oxo-5β-(2Z-pentenyl)-2-cyclopentene-1β-octanoic acid]	reduces		
OO [hydrogen peroxide]	reduced		
CC1=CC(=O)c2ccccc2C1=O [menadion]	reduces	underwent one-electron reduction and produced semiquinone radicals	Inhibition of the PGH2-F2α reducing activity of TcOYE (TcOYE [2]): weak
CC(=O)Oc1ccccc1C(=O)O [Aspirin]			Production of PGs (PGD2, PGE2, PGF2) by crude extract ([3]; 3 μM Aspirin): unaffected
O=C(Cn1ccnc1[N+](=O)[O-])NCc1ccccc1 [benznidazole]	did not reduce		
O=[N+]([O-])c1cc[n+]([O-])c2ccccc12 [4-nitroquinoline-N-oxide]	reduces	underwent two-electron reduction and did not produce radicals	Inhibition of the PGH2-F2α reducing activity of TcOYE (TcOYE [2]): weak
CCCCC/C=C\C=C\C(=O)CCCCCCCC(=O)O [9-oxo-10E,12Z-octadecadienoic acid]	reduces		
CC1CS(=O)(=O)CCN1/N=C/c1ccc([N+](=O)[O-])o1 (stereo not shown) [nifurtimox]	reduces	underwent two-electron reduction and did not produce radicals	Inhibition of the PGH2-F2α reducing activity of TcOYE (TcOYE [2]): inhibits the activity most strongly
CC1(C)CCC2=C(O1)c1ccccc1C(=O)C2=O [β-lapachone]	reduces	underwent one-electron reduction and produced semiquinone radicals	Inhibition of the PGH2-F2α reducing activity of TcOYE (TcOYE [2]): weak
C[n+]1c2ccccc2nc2ccccc21 [phenazine methosulfate, 5-methyl-phenaziummethylsulfate]	reduces		
2β,6α-dimethyl-8α-(2-methyl-1-oxo-butoxy)-mevinic acid lactone [mevinolin]	reduces	underwent two-electron reduction and did not produce radicals	
recombinant TcOYE (Trypanosoma cruzi old yellow enzyme, PGH2-F2α reductase, flavoprotein, SEQ ID NO: 2, 379 amino acids; expressed in E. coli BL21 from pGEX-4T-1 as fusion with glutathione transferase, recovered by thrombin treatment) (Trypanosoma cruzi)			Km [4]: 5.0 µM; Km [5]: 0.17 µM; Km (C[n+]1c2ccccc2nc2ccccc21): 10.4 µM; Km (CC1=CC(=O)c2ccccc2C1=O): 0.82 µM; Km [6]: 19.0 µM; Km [7]: 9.5 µM
COc1ccc2c(c1)c(CC(=O)O)c(C)n2C(=O)c1ccc(Cl)cc1 [indomethacin]			Production of PGs (PGD2, PGE2, PGF2) by crude extract ([3]; 42 μM indomethacin): unaffected
